These results are taken from patent publication US20180002400A1, “SHORT PEPTIDE-BASED THERAPEUTIC AGENT AND MEDICINAL COMPOSITION INCLUDING THE SAME FOR INHIBITING ACTIVITIES OF CANCER CELLS” (NATIONAL CHENG KUNG UNIVERSITY, priority 2015, published 2018).

What all share (format): cell-based, human
The subject of series [1] is drug-resistant breast cancer MB231R (MBR) cells. In words: Cancer cell invasion (matrigel-coated insert) induced by euPTX3.
The subject of series [2] is lung cancer A549 cell. Kind of series: Drug resistance (CDDP, 5-FU) induced by euPTX3, MTT assay. The conditions noted are these: A549 only co-cultured with euPTX3 2.5 μg/mL vs without euPTX3; FIG. 2B. The method, then:
(§1) The cell density 1×10^4 cells/well of the breast cancer MB231 cell, the lung cancer A549 cell and the nasopharyngeal cancer HONE1 cell were co-cultured with the short peptides RI37, GI40 and KT44 (10 μg/mL or 225 nM of the short peptide) and the polypeptide euPTX3 (2.5 μg/mL) of Example 1. After 1 week of cultivation, those cancer cells were added with 40 μM of CDDP or 100 μM of 5-FU respectively and cultured for 48 hours. Based on the cell viability of the cells only co-cultured with the polypeptide euPTX3 (2.5 μg/mL) as 100%, the influence of drug resistance of the cancer cells of Example 2 using the short peptides of Example 1 could be determined according to the aforementioned MTT assay.

For another series, the system named is breast cancer MB231 cell. The series is described as above. As to conditions: MB231 only co-cultured with euPTX3 2.5 μg/mL vs without euPTX3; FIG. 1D. The method, then:
as §1

Series [3] concerns nasopharyngeal cancer HONE1 cell. The description is as above. As to conditions: HONE1 only co-cultured with euPTX3 2.5 μg/mL vs without euPTX3; FIG. 3B. The method, then:
as §1

The subject of series [4] is lung cancer A549 cell. Kind of series: Cancer cell migration (Boyden chamber) induced by euPTX3. As to conditions: A549 only co-cultured with euPTX3 2.5 μg/mL; FIG. 2C left panel. The method, then:
(§2) The cell density 5×10^4 cells/well of the breast cancer MB231 cell, the lung cancer A549 cell and the nasopharyngeal cancer HONE1 cell were seeded into each upper insert of 24-well plate (containing 8-μm pore insert per well; BD Biosciences) for 19 hours, and each lower well was added with the short peptides RI37, GI40 and KT44 (10 μg/mL or 225 nM of the short peptide) and the polypeptide euPTX3 (2.5 μg/mL) of Example 1, for evaluating the influence of migration of the cancer cell of Example 2 using several short peptides of Example 1.
(§3) The cell density 5×10^4 cells/well of the breast cancer MB231 cell, the lung cancer A549 cell and the nasopharyngeal cancer HONE1 cell were seeded into each upper insert of Boyden chamber for 3 hours of cultivation.
(§4) And then, the medium in each upper insert was replaced by serum-free medium, and the medium in each lower well was added with the short peptides RI37, GI40, KT44 and the polypeptide euPTX3 of Example 1. The cells inside each upper insert were wiped with cotton swabs and removed after 16 hours of cultivation. Remaining cells that had migrated to the bottom of the insert membrane were stained by 4′,6-diamidino-2-phenylindole (DAPI; Invitrogen) and calculated under fluorescence microscopy with 200-fold magnification.

Series [5] relates to nasopharyngeal cancer HONE1 cell. Described as above. The conditions noted are these: HONE1 only co-cultured with euPTX3 2.5 μg/mL; FIG. 3C left panel. How it is done:
as §2, §3, §4

In series [6] the test system is drug-resistant breast cancer MB231R (MBR) cells. The description is as above. How it is done: [The procedure below names another cell line; the source lists this cell line under the same test.] as §2, §3, §4
The subject of series [7] is lung cancer A549 cell. In words: Cancer cell invasion (matrigel-coated insert) induced by euPTX3. As to conditions: A549 only co-cultured with euPTX3 2.5 μg/mL; FIG. 2C right panel. How it is done: (§5) The cell density 5×10^4 cells/well of the breast cancer MB231 cell, the lung cancer A549 cell and the nasopharyngeal cancer HONE1 cell were seeded into each upper insert of 24-well plate (containing 8-μm pore insert per well; BD Biosciences), the upper insert and the lower well were separated by the polyethelene terephthalate membrane coated with matrigel (purchased from BD Bioscience), and cultured for 3 hours.
(§6) Next, the medium in each upper insert was replaced by serum-free medium, and the medium in each lower well was added with the short peptides RI37, GI40, KT44 and the polypeptide euPTX3 and pPTX3/C of Example 1. The cells inside each upper insert were wiped with cotton swabs and removed after 16 hours of cultivation. Remaining cells that had migrated to the bottom of the insert membrane were stained by 4′, 6-diamidino-2-phenylindole (DAPI; Invitrogen) and calculated under fluorescence microscopy with 200-fold magnification.

The subject of series [8] is nasopharyngeal cancer HONE1 cell. The series is described as above. The conditions noted are these: HONE1 only co-cultured with euPTX3 2.5 μg/mL; FIG. 3C right panel. The method, then: as §5, §6

Take “euPTX3: commercially available PTX3 product (R&D system Inc.), recombinant protein purified from mouse myeloma cells (NS0)”: the invasive cell numbers result in series [1] (breast cancer cells only co-cultured with euPTX3 2.5 μg/mL, FIG. 1E, 5B right panels) is “increase invasive cell numbers”; with lung cancer A549 cell [7], “increase invasive cell numbers”; in series [8] it was “increase invasive cell numbers”. Besides, the “drug resistance to CDDP or 5-FU (cell viability)” value (with lung cancer A549 cell [2]; in the series on breast cancer MB231 cell; in series [3]) was “increase drug resistance to CDDP or 5-FU” in each case. In addition, the migrated cell numbers entry was “increase migrated cell numbers” in the series with lung cancer A549 cell [4]; “increase migrated cell numbers” in series [5]; “increase migrated cell numbers” in series [6] (breast cancer cells only co-cultured with euPTX3 2.5 μg/mL, FIG. 1E, 5B left panels).

B1: pPTX3/C: recombinant protein (SEQ ID NO:4) expressed and purified from prokaryotic expression system (E. coli); control group (protein)
chain: ETAILFPMRSKKIFGSVHPVRPMRLESFSACIWVKATDVLNKTILFSYGTKRNPYEIQLYLSYQSIVFVVGGEENKLVAEAMVSLGRWTHLCGTWNSEEGLTSLWVNGELAATTVEMATGHIVPEGGILQIGQEKNGCCVGGGFDETLAFSGRLTGFNIWDSVLSNEEIRETGGAESCHIRGNIVGWGVTEIQPHGGAQYVS
modifications: The 180th amino acid to 381th amino acid of Human sapiens PTX3 (pPTX3/C)
notes: control group
For the molecule B1, in [1] (MB231R (MBR), identical molecular number: euPTX3 2.5 μg/mL, RI37 3.7 μg/mL, GI40 4 μg/mL, pPTX3/C 10 μg/mL, FIG. 5B right panel), the “invasive cell numbers induced by the polypeptide euPTX3” value is “can inhibit invasive cell numbers”. In series [6] (MB231R (MBR), identical molecular number: euPTX3 2.5 μg/mL, RI37 3.7 μg/mL, GI40 4 μg/mL, pPTX3/C 10 μg/mL, FIG. 5B left panel), the “migrated cell numbers induced by the polypeptide euPTX3” value is “can inhibit migrated cell numbers”.
